Reference: patent US20250188079A1, “INHIBITING CYCLIC AMP-RESPONSIVE ELEMENT-BINDING PROTEIN (CREB)” (Forma Therapeutics, Inc., priority 2019, published 2025)

Molecular target: CBP (Homo sapiens (Human), UniProt Q92793)
Assay: HTRF biochemical assay for CBP activity (TR-FRET, bromodomain)
Assay type: binding
Settings: geometric mean, 10-point 3-fold dilution 33 μM to 1.7 nM, read-out: BROMO IC50 TRF TB CBP (μM gmean)
Procedure: Example 1: HTRF Biochemical Assay for CBP Activity
The assay was performed in a final volume of 6 μL in assay buffer containing 50 mM Hepes (pH 7.5, (0.5M Hepes, pH 7.5 solution; Teknova H1575)), 0.5 mM GSH, 0.01% BGG (0.22 p M filtered, Sigma, G7516-25G), 0.005% BSA (0.22 μM filtered, EMD Millipore Corporation, 126575) and 0.01% Triton X-100 (Sigma, T9284-10L). Nanoliter quantities of 10-point, 3-fold serial dilution in DMSO were pre-dispensed into 1536 assay plates (Corning, #3724BC) for a final test concentration of 33 μM to 1.7 nM, top to lowest dose, respectively. 3 μL of 2×Protein and 3 μL of 2×Peptide Ligand were added to assay plates (pre-stamped with compound). Plates were incubated for varying times at room temperature prior to measuring the signal. TR-FRET (Time-Resolved Fluorescence Resonance Energy Transfer) was measured on the PHERAstar (BMG, equipped with HTRF optic module [337/520/490]) or on the Envision (PerkinElmer, equipped with the TRF Laser unit, TRF dual mirror D400/D505 and emission filters M520 and M495). Data were reported as percent inhibition compared with control wells based on the following equation: % inh=1−((TR-FRET ratio−AveLow)/(AveHigh−AveLow)) where TR-FRET ratio=(Fluorescence at 520 nm/Fluorescence at 490 nm)*10000), AveLow=average TR-FRET ratio of no enzyme control (n=32), and AveHigh=average TR-FRET ratio of DMSO control (n=32). IC50 values were determined by curve fitting of the standard 4 parameter logistic fitting algorithm included in the Activity Base software package: IDBS XE Designer Model205. Data is fitted using the Levenburg Marquardt algorithm. As set forth in Table 2 below, an IC50 value of greater than or equal to 0.001 μM and less than or equal to 0.01 μM is marked “++++”; a value greater than 0.01 μM and less than or equal to 0.1 μM is marked “+++”; a value greater than 0.1 μM and less than or equal to 1 μM is marked “++”; and a value greater than 1 μM and less than 1000 μM is marked “+.” Compounds that were not tested in a particular assay are marked “NT.”

Chain of CBP (Q92793 1085-1192): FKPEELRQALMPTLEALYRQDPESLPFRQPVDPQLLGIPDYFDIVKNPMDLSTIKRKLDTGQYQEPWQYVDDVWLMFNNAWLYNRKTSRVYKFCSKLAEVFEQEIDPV

| Molecule | IC50 |
| --- | --- |
| COC(=O)N1CCc2ccc3c(nc([C@H]4CC[C@@H](OC)CC4)n3C[C@H](C(=O)O)c3ccccc3)c2C1 [Compound 250] | 0.01 to 0.1 µM |
| COC(=O)N1CCc2ccc3c(nc(C4CCN(C(C)=O)CC4)n3[C@@H](C)Cc3ccccc3)c2C1 [Compound 323] | 0.1 to 1 µM |
| COC(=O)N1CCc2ccc3c(nc([C@@H]4CCC[C@@H](C(=O)O)C4)n3[C@H](C)Cc3ccccc3Cl)c2C1 (single isomer, unassigned) [Compound 263] | 0.01 to 0.1 µM |
| COC(=O)N1CCc2ccc3c(nc([C@H]4CC[C@H](C(=O)O)CC4)n3[C@H](C)Cc3ccccc3Cl)c2C1 [Compound 295] | 0.1 to 1 µM |
| COC(=O)N1CCc2ccc3c(nc([C@@H]4CCC[C@@H](C(=O)O)C4)n3Cc3cccc(OC)n3)c2C1 [Compound 272] | 0.01 to 0.1 µM |
| (3S)-4-[2-cyclohexyl-8-(methoxycarbonyl)-3H,6H,7H,8H,9H-imidazo[4,5-h]isoquinolin-3-yl]-3-(3-fluoro-5-methoxyphenyl)butanoic acid [Compound 10] | 0.001 to 0.01 µM |
| COC(=O)N1CCc2ccc3c(nc([C@H]4CC[C@H](C(=O)O)CC4)n3[C@@H](C)Cc3ccccn3)c2C1 [Compound 141] | 0.001 to 0.01 µM |
| COC(=O)N1CCc2ccc3c(nc([C@H]4CCCOC4)n3C[C@@H](C(=O)O)c3ccccc3)c2C1 [Compound 61] | 0.001 to 0.01 µM |
| COC(=O)N1Cc2c(ccc3c2nc(C2CCCCC2)n3CCc2ccccc2)CC1C (stereo not shown) [Compound 238] | 0.01 to 0.1 µM |
| COC(=O)N1CCc2ccc3c(nc(C4CCCCC4)n3CC[C@H]3CC[C@H](C(=O)O)CC3)c2C1 [Compound 243] | 0.01 to 0.1 µM |
| COC(=O)N1CCc2ccc3c(nc(N4CCC(C(=O)O)CC4)n3[C@H](C)Cc3cc(F)cc(OC)c3)c2C1 (single isomer, unassigned) [Compound 16] | 0.001 to 0.01 µM |
| COC(=O)N1CCc2ccc3c(nc([C@H]4CC[C@H](OC)CC4)n3C[C@H](C(=O)O)c3ccccc3)c2C1 [Compound 1] | 0.001 to 0.01 µM |
| COC(=O)N1CCc2ccc3c(nc([C@@H]4CCC[C@@H](C(=O)O)C4)n3[C@@H](C)Cc3ccccc3C)c2C1 (single isomer, unassigned) [Compound 17] | 0.001 to 0.01 µM |
| COC(=O)N1CCc2ccc3c(nc([C@H]4CC[C@H](C(=O)O)CC4)n3C3(Cc4ccccc4)COC3)c2C1 [Compound 271] | 0.01 to 0.1 µM |
| COC(=O)N1CCc2c(C(=O)O)cc3c(nc(C4CCCCC4)n3CCc3ccccc3)c2C1 [Compound 149] | 0.001 to 0.01 µM |
| COC(=O)N1CCc2ccc3c(nc(C4CCCCC4)n3[C@H](C)C[C@H]3CC[C@H](C(=O)O)CC3)c2C1 [Compound 237] | 0.01 to 0.1 µM |
| COC(=O)N1CCc2ccc3c(nc([C@H]4CCC[C@H](C(=O)O)C4)n3Cc3cccc(OC)n3)c2C1 [Compound 277] | 0.01 to 0.1 µM |
| COC(=O)N1CCc2ccc3c(nc(C4CCCCC4)n3C[C@H](C(=O)O)c3cc(F)c(Cl)cc3OC)c2C1 (single isomer, unassigned) [Compound 229] | 0.01 to 0.1 µM |
| COC(=O)N1CCc2ccc3c(nc(C4CCCCC4)n3C[C@H](C(=O)O)c3cc(F)c(C)cc3OC)c2C1 (single isomer, unassigned) [Compound 27] | 0.001 to 0.01 µM |
| COC(=O)N1CCc2ccc3c(nc(C45CC(C4)C5)n3C[C@H](C(=O)O)c3ccccc3)c2C1 [Compound 128] | 0.001 to 0.01 µM |
| COC(=O)N1CCc2c([C@H]3CCOC3)cc3c(nc([C@H]4CC[C@H](C(=O)O)CC4)n3CCc3ccccc3)c2C1 [Compound 136] | 0.001 to 0.01 µM |
| C[C@H](Cc1ccccc1)n1c2ccc3c(c2nc1[C@H]1CC[C@H](C(=O)O)CC1)CN(C(=O)C1CC1)CC3 [Compound 244] | 0.01 to 0.1 µM |
| COC(=O)N1CCc2ccc3c(nc([C@@H]4CCC[C@@H](C(=O)O)C4)n3[C@@H](C)Cc3ccccc3Cl)c2C1 (single isomer, unassigned) [Compound 20] | 0.001 to 0.01 µM |
| COC(=O)N1CCc2ccc3c(nc(C4CCN(C(C)=O)CC4)n3[C@@H](C)Cc3cccnc3)c2C1 [Compound 207] | 0.01 to 0.1 µM |
| COC(=O)N1CCc2ccc3c(nc(C4CCCCC4)n3CC[C@H]3CCCC[C@@H]3C(=O)O)c2C1 [Compound 252] | 0.01 to 0.1 µM |
| COC(=O)N1CCc2ccc3c(nc([C@@H]4CCC[C@@H](C(=O)O)C4)n3C(C)Cc3ccccc3)c2C1 (stereo in doubt) [Compound 298, (1R,3R)-3-[8-(methoxycarbonyl)-3-[(2R)-1-phenylpropan-2-yl]-3H,6H,7H,8H,9H-imidazo[4,5-h]isoquinolin-2-yl]cyclohexane-1-carboxylic acid] | 0.1 to 1 µM |

| Molecule | IC50 |
| --- | --- |
| COC(=O)N1CCc2ccc3c(nc(C4CCNCC4)n3CCc3ccccc3)c2C1 [Compound 345] | 0.1 to 1 µM |
| COC(=O)N1CCc2ccc3c(nc(C4CCCCC4)n3[C@@H](C)C[C@@H]3CCCC[C@@H]3C(=O)O)c2C1 [Compound 120] | 0.001 to 0.01 µM |
| COC(=O)N1CCc2ccc3c(nc([C@H]4CC[C@H](C(=O)O)CC4)n3[C@@H](C)Cc3cccc(C)c3)c2C1 [Compound 100] | 0.001 to 0.01 µM |
| COC(=O)N1CCc2ccc3c(nc(N4CCCCC4)n3[C@H](C)Cc3cccc(C(=O)O)c3)c2C1 (single isomer, unassigned) [Compound 33] | 0.001 to 0.01 µM |
| COC(=O)N1CCc2ccc3c(nc(C4CCCCC4)n3C[C@H](CC(=O)O)c3cc(F)cc(OC)c3)c2C1 [Compound 36] | 0.001 to 0.01 µM |
| COC(=O)N1CCc2ccc3c(nc([C@H]4CC[C@](C)(C(=O)O)CC4)n3[C@H](C)Cn3cc(Cl)cn3)c2C1 [Compound 309] | 0.1 to 1 µM |
| COC(=O)N1CCc2ccc3c(nc(C4CCCCC4)n3C[C@@H](CC(=O)O)c3cc(F)cc(F)c3)c2C1 [Compound 76] | 0.001 to 0.01 µM |
| COC(=O)N1Cc2c(ccc3c2nc(C2CCCCC2)n3CCc2ccccc2)C[C@H]1C [Compound 232] | 0.01 to 0.1 µM |
| COC(=O)N1CCc2ccc3c(nc(C4CCCCC4)n3C[C@@H](C(=O)NS(C)(=O)=O)c3ccccc3)c2C1 (single isomer, unassigned) [Compound 138] | 0.001 to 0.01 µM |
| COC(=O)N1CCc2ccc3c(nc(C4CCCCC4)n3[C@@H](C)C[C@@H]3CCCC[C@H]3C(=O)O)c2C1 [Compound 210] | 0.01 to 0.1 µM |
| COC(=O)N1CCc2ccc3c(nc([C@H]4CCC[C@H](C(=O)O)C4)n3[C@H](C)Cc3ccccc3C)c2C1 (single isomer, unassigned) [Compound 163] | 0.001 to 0.01 µM |
| COC(=O)N1CCc2ccc3c(nc(C4CCCCC4)n3CCc3ccc(OC)c(C(=O)O)c3)c2C1 [Compound 242] | 0.01 to 0.1 µM |
| COC(=O)N1CCc2ccc3c(nc([C@H]4CC[C@H](C(=O)O)CC4)n3[C@@H](C)Cn3cc(Cl)cn3)c2C1 [Compound 85] | 0.001 to 0.01 µM |
| COC(=O)N1CCc2ccc3c(nc([C@H]4CC[C@H](C(=O)O)CC4)n3[C@@H](C)Cc3ccc4c(c3)CCO4)c2C1 [Compound 65] | 0.001 to 0.01 µM |
| COC(=O)N1CCc2ccc3c(nc([C@H]4CC[C@H](C(=O)O)CC4)n3[C@H](C)[C@H](O)c3ccccc3)c2C1 [Compound 276] | 0.01 to 0.1 µM |
| COC(=O)N1CCc2ccc3c(nc([C@H]4CC[C@](C)(C(=O)O)CC4)n3[C@@H](C)Cc3ccccc3)c2C1 [Compound 224] | 0.01 to 0.1 µM |
| (3R)-4-[2-cyclohexyl-8-(methoxycarbonyl)-3H,6H,7H,8H,9H-imidazo[4,5-h]isoquinolin-3-yl]-3-(3-fluoro-5-methoxyphenyl)butanoic acid [Compound 194] | 0.01 to 0.1 µM |
| COC(=O)N1CCc2ccc3c(nc(N4CCOCC4)n3[C@@H](C)Cc3cccc(C(=O)O)c3)c2C1 [Compound 182] | 0.01 to 0.1 µM |
| COC(=O)N1CCc2ccc3c(nc(C4CCCCC4)n3C[C@@H](CC(=O)O)c3ccc(F)c(F)c3)c2C1 [Compound 21] | 0.001 to 0.01 µM |
| COC(=O)N1CCc2ccc3c(nc(N4CCCCC4)n3C[C@@H](CC(=O)O)c3ccc(F)c(F)c3)c2C1 [Compound 25] | 0.001 to 0.01 µM |
| COC(=O)N1CCc2ccc3c(nc(C4CCCCC4)n3[C@@H](C)CC3CCCC[C@@H]3C(=O)O)c2C1 (stereo partly shown) [Compound 39] | 0.001 to 0.01 µM |
| COC(=O)N1CCc2ccc3c(nc(N4CCC[C@H](C(=O)O)C4)n3C[C@H](C)c3ccccc3)c2C1 [Compound 306] | 0.1 to 1 µM |
| COC(=O)N1CCc2c(C#N)cc3c(nc([C@H]4CC[C@H](C(=O)O)CC4)n3[C@H](C)Cc3ccccc3)c2C1 [Compound 269] | 0.01 to 0.1 µM |
| COC(=O)N1CCc2ccc3c(nc([C@H]4CC[C@H](C(=O)O)CC4)n3[C@@H](C)Cc3ccccc3)c2C1 [Compound 72] | 0.001 to 0.01 µM |
| COC(=O)N1CCc2ccc3c(nc(N4CCC(C(=O)O)CC4)n3[C@@H](C)Cn3cc(Cl)cn3)c2C1 [Compound 73] | 0.001 to 0.01 µM |
| COC(=O)N1CCc2ccc3c(nc([C@H]4CC[C@H](C(=O)O)CC4)n3CC(F)(F)c3ccccc3)c2C1 [compound 145] | 0.001 to 0.01 µM |
